# ChEMBL document CHEMBL5316267, “Subnanomolar Affinity and Selective Antagonism at α7 Nicotinic Receptor by Combined Modifications of 2-Triethylammonium Ethyl Ether of 4-Stilbenol (MG624)” (J Med Chem, 2023)
# pKi: −log10 of the molar value. Activity calls are given as the source filed them. The rule behind the calls is not given here.
# How the values were obtained:
# [1] = target: Neuronal acetylcholine receptor; alpha4/beta2 (Homo sapiens, UniProt P17787+P43681); assay: Displacement of [3H]-Epibatidine from alpha4beta2 nAChR (unknown origin) expressed in HEK293 cell membrane assessed as inhibition constant by beta counter method; assay type: cell membranes
# Chain of Neuronal acetylcholine receptor; alpha4/beta2 (P17787 whole entry): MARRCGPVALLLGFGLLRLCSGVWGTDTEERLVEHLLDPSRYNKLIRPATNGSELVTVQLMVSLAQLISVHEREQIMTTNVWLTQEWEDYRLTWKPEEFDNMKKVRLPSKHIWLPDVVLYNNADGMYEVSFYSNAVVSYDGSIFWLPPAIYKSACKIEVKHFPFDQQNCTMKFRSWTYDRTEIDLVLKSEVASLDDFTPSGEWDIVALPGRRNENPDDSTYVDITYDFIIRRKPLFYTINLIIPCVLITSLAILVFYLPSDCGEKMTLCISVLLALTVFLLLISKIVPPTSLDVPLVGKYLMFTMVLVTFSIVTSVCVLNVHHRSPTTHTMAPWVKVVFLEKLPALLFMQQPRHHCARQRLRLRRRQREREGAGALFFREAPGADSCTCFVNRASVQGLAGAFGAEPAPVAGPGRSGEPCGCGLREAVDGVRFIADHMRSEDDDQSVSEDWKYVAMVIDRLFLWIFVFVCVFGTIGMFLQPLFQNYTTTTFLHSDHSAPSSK
# Chain of Neuronal acetylcholine receptor; alpha4/beta2 (P43681 whole entry): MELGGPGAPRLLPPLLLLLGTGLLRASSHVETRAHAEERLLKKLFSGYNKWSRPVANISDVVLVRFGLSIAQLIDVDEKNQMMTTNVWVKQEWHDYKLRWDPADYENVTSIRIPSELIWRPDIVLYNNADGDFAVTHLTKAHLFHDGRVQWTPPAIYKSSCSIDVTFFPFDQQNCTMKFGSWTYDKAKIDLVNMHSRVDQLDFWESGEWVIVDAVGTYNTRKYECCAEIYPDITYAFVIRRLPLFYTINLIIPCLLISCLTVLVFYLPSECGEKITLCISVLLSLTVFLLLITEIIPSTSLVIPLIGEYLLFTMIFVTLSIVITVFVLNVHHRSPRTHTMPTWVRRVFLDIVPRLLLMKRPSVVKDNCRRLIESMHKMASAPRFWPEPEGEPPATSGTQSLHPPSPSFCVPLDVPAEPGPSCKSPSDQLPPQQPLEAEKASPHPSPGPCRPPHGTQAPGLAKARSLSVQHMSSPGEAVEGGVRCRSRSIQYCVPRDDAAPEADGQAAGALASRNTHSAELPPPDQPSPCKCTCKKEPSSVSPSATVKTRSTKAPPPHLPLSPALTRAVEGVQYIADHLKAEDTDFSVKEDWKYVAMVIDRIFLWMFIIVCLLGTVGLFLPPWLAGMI
# [2] = target: Neuronal acetylcholine receptor; alpha9/alpha10 (Homo sapiens) (UniProt Q9UGM1+Q9GZZ6); assay: Partial agonist activity at human alpha9alpha10 nAChR expressed in acetylcholine-induced Xenopus laevis oocytes assessed as residual activity treated for 1 sec followed by acetylcholine stimulation for 1 min post-compound treatment at holding potential of -70 mV by two electrode voltage-clamp assay; assay type: cell-based; conditions: Oocyte, time 61.0 sec
# [3] = target: Neuronal acetylcholine receptor; alpha3/beta4 (Homo sapiens, UniProt P30926+P32297); assay: Displacement of [3H]-Epibatidine from alpha3beta4 nAChR (unknown origin) expressed in SH-EP1 cell membrane assessed as inhibition constant by beta counter method; assay type: cell membranes
# Chain of Neuronal acetylcholine receptor; alpha3/beta4 (P30926 whole entry): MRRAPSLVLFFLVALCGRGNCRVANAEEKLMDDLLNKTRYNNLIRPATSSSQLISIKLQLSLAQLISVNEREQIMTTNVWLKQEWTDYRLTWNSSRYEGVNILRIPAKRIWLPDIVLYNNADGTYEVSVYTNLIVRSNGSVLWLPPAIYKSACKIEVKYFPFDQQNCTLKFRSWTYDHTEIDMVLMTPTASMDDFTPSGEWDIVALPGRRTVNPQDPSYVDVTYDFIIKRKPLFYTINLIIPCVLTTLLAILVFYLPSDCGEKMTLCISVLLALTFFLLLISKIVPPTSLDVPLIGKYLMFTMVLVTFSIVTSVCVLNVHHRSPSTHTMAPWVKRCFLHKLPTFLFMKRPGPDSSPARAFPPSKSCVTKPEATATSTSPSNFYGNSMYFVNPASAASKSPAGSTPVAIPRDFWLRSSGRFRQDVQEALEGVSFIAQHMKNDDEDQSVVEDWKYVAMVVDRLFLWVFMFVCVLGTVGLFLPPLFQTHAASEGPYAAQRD
# Chain of Neuronal acetylcholine receptor; alpha3/beta4 (P32297 whole entry): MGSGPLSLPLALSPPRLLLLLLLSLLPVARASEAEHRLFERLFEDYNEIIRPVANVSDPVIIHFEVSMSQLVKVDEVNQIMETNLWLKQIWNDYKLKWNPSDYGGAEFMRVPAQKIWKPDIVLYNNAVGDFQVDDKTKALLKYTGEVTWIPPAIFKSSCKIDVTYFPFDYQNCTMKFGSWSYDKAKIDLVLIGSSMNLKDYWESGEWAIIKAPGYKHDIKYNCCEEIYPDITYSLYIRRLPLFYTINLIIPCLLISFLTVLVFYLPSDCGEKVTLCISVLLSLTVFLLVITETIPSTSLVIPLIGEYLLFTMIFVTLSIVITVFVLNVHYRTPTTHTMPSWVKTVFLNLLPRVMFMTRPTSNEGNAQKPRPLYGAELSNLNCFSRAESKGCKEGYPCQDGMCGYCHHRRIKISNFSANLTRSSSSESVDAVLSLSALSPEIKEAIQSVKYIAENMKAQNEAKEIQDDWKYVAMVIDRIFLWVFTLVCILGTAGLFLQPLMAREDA
# [4] = target: Neuronal acetylcholine receptor subunit alpha-7 (Homo sapiens) (UniProt P36544); assay: Antagonist activity at human alpha7 nAChR expressed in acetylcholine-induced Xenopus laevis oocytes treated for 1 sec followed by acetylcholine stimulation 1 min post-compound treatment at holding potential of -70 mV by two electrode voltage-clamp assay; assay type: cell-based; conditions: Oocyte, filed as antagonist, time 61.0 sec
# Chain of Neuronal acetylcholine receptor subunit alpha-7 (Homo sapiens) (P36544 whole entry): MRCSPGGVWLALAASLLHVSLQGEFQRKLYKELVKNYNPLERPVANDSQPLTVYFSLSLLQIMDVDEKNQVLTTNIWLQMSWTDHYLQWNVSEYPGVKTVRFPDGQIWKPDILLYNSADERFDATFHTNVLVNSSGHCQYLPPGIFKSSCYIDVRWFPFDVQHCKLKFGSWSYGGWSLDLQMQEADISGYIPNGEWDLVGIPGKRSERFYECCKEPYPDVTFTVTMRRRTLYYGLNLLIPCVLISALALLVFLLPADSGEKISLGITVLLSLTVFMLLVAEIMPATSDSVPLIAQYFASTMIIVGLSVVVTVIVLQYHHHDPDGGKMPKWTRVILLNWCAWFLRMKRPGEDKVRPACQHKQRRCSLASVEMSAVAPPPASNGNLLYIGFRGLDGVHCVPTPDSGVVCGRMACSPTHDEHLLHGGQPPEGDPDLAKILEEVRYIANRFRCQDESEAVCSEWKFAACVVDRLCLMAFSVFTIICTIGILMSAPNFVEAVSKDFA
smiles,measurement,setting,value
CC[N+](CC)(CC)CCOc1ccc(OCc2ccccc2)cc1,pKi,[1],5.12
CC[N+](CC)(CC)CCOc1ccc(CCc2ccccc2)cc1,Activity,[2],inactive
CC[N+](CC)(CC)CCOc1ccc(-c2cccc3ccccc23)cc1,pKi,[3],7.01
C[N+]1(C)CC[C@@H](Oc2ccc(-c3ccc4[nH]ccc4c3)cc2)C1,Activity,[4],Active
